Measurements as given in patent publication US8791144B2, “Substituted N-phenyl-1-(4-Pyridinyl)-1H-pyrazol-3-amines” (Janssen Pharmaceutica NV, priority 2009, dated 2014).

Tests used:
hα7-wt nAChR = hα7-wt nAChR (Homo sapiens, UniProt P36544); assay: Ca2+ flux imaging (FDSS): potentiation of the choline response; type: cell-based; conditions: Ca2+ assay as described in D.1, potentiation of choline response, hα7-wt nAChR; for EC50: read-out: Potency (pEC50) (converted); for Emax: read-out: % Efficacy
Sequence of hα7-wt nAChR (P36544 23-502): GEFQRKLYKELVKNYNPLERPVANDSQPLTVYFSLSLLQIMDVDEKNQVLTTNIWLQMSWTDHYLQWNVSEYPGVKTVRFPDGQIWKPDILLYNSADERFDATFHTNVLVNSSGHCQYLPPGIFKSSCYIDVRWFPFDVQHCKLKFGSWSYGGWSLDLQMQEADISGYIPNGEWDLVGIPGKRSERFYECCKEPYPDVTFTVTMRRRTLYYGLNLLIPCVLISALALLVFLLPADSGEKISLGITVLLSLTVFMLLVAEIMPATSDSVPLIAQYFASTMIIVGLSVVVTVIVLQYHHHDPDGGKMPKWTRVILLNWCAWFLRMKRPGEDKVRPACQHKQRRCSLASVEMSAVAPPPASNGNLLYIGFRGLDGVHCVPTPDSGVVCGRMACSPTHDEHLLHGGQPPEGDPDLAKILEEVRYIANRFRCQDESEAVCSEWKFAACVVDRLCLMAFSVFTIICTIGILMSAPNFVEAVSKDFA
Experimental: • a) Assay Buffer • Hanks buffered saline solution (HBSS, Invitrogen, Belgium), supplemented with 10 mM HEPES (Invitrogen, Belgium), CaCl2 to a final concentration of 5 mM, 0.1% Bovine serum albumin (Sigma-Aldrich NV, Belgium). • b) Calcium-Sensitive Dye—Fluo-4AM • Fluo-4AM (Molecular Probes, USA) was dissolved in DMSO containing 10% Pluronic acid (Molecular Probes, USA) to give a stock solution which was diluted in assay buffer supplemented with 5 mM probenicid (Sigma, Aldrich NV, Belgium) to give a final concentration of 2 μM. • c) 384-Well Plates • Black 384 well plate black/clear plates, PDL pre-coated (Corning, Incorporated, USA) • d) Calcium Flux Measurement • A Functional drug screening system (FDSS, Hamamatsu) was used to measure intracellular free-calcium flux signals. Method
Monolayers of hα7-wt nAChR-expressing cells were grown in multi-well plates, in particular black-sided, transparent bottomed 384 well plates coated with poly-D-lysine for 24 hours prior to loading with a fluorescent calcium indicator, in a particular embodiment loading with fluo-4AM for up to 120 minutes.
PAM activity was detected in real time by applying the compounds to be tested to the loaded cells along with a α7 nicotinic receptor agonist during constant monitoring of cellular fluorescence in a FDSS. Compounds giving peak fluorescent responses greater than the response due to agonist alone, were considered to be α7 nAChR PAM's. In a particular embodiment, the α7 nicotinic receptor agonist was choline, a more particular embodiment choline applied at a sub-maximal concentration of 100 μM. In a further setting of the present invention the compounds to be tested were applied prior to the α7 nicotinic receptor agonist, in a particular embodiment up to 10 minutes prior to the agonist.
A control response to choline was calculated on each plate from the difference in peak in fluorescence in wells receiving either choline or assay buffer alone. Compounds of the present invention were tested at a concentration range from 0.01 μM to 30 μM. Compounds were considered to have an interesting activity when they potentiated the choline signal at least with 200% when tested at a concentration of 30 μM (the efficacy of 100 μM choline was defined as 100% in the absence of a PAM). An EC50 (or pEC50) was determined as a concentration relating to half the maximal effect, when a clear sigmoidal curve with top plateau was obtained.

EC50 (hα7-wt nAChR)	melting point	Emax (hα7-wt nAChR)	SMILES
1950 nM	183.8 °C	930%	COc1cc(Nc2cc(CC#N)n(-c3ccnc(C)c3)n2)cc(C(F)(F)F)c1 [Compound 3, 3-[[3-methoxy-5-(trifluoromethyl)phenyl]amino]-1-(2-methyl-4-pyridinyl)-1H-pyrazole-5-acetonitrile]
3390 nM	169.2 °C		Cc1cc(-n2nc(Nc3ccc(F)c(F)c3)cc2C)ccn1 [Compound 14, N-(3,4-difluorophenyl)-5-methyl-1-(2-methyl-4-pyridinyl)-1H-pyrazol-3-amine]
2820 nM	155.3 °C		Cc1cc(-n2nc(Nc3ccc(F)c(F)c3)cc2CO)ccn1 [Compound 15, 3-[(3,4-difluorophenyl)amino]-1-(2-methyl-4-pyridinyl)-1H-pyrazole-5-methanol]
309 nM	170.4 °C	705%	CC[C@@H](O)Cc1cc(Nc2cc(F)c(F)c(F)c2)nn1-c1ccnc(C)c1 [Compound 19, (alphaR)-alpha-ethyl-1-(2-methyl-4-pyridinyl)-3-[(3,4,5-trifluorophenyl)amino]-1H-pyrazole-5-ethanol]
	252.9 °C		CNC(=O)Cc1cc(Nc2ccc(F)c(F)c2)nn1-c1ccnc(C)c1 [Compound 27, 3-[(3,4-difluorophenyl)amino]-N-methyl-1-(2-methyl-4-pyridinyl)-1H-pyrazole-5-acetamide]
4370 nM			Cc1cc(-n2nc(Nc3cccc(C(F)(F)F)c3)cc2CC#N)ccn1 [Compound 40, 1-(2-methyl-4-pyridinyl)-3-[[3-(trifluoromethyl)phenyl]amino]-1H-pyrazole-5-acetonitrile]
240 nM	182.4 °C		CC[C@@H](O)Cc1cc(Nc2cc(F)cc(Cl)c2)nn1-c1ccnc(C)c1 [Compound 60, (alphaR)-3-[(3-chloro-5-fluorophenyl)amino]-alpha-ethyl-1-(2-methyl-4-pyridinyl)-1H-pyrazole-5-ethanol]
2820 nM	180.2 °C		Cc1cc(-n2nc(Nc3cccc(OC(F)(F)F)c3)cc2CC#N)ccn1 [Compound 107, 1-(2-methyl-4-pyridinyl)-3-[[3-(trifluoromethoxy)phenyl]amino]-1H-pyrazole-5-acetonitrile]
2000 nM	115.8 °C		COC(=O)Cc1cc(Nc2cccc(OC(F)(F)F)c2)nn1-c1ccnc(C)c1 [Compound 109, 1-(2-methyl-4-pyridinyl)-3-[[3-(trifluoromethoxy)phenyl]amino]-1H-pyrazole-5-acetic acid methyl ester]

The remaining lines, values behind:

SMILES	EC50 (hα7-wt nAChR)	melting point	Emax (hα7-wt nAChR)
COc1cc(Nc2cc(COCc3ccccc3)n(-c3ccnc(C)c3)n2)cc(C(F)(F)F)c1 [Compound 1, N-[3-methoxy-5-(trifluoromethyl)phenyl]-1-(2-methyl-4-pyridinyl)-5-[(phenylmethoxy)methyl]-1H-pyrazol-3-amine]	1450 nM	148.1 °C	
COc1cc(Nc2cc(CCCO)n(-c3ccnc(C)c3)n2)cc(C(F)(F)F)c1 [Compound 7, 3-[[3-methoxy-5-(trifluoromethyl)phenyl]amino]-1-(2-methyl-4-pyridinyl)-1H-pyrazole-5-propanol]	2880 nM		
CC[C@@H](O)Cc1cc(Nc2ccc(F)c(F)c2F)nn1-c1ccnc(C)c1 [Compound 13, (alphaR)-alpha-ethyl-1-(2-methyl-4-pyridinyl)-3-[(2,3,4-trifluorophenyl)amino]-1H-pyrazole-5-ethanol]	316 nM	144.4 °C	
Cc1cc(-n2nc(Nc3ccc(F)c(F)c3)cc2CCCOCc2ccccc2)ccn1 [Compound 32, N-(3,4-difluorophenyl)-1-(2-methyl-4-pyridinyl)-5-[3-(phenylmethoxy)propyl]-1H-pyrazol-3-amine]	1020 nM	108.2 °C	
CC[C@@H](O)Cc1cc(Nc2cccc(Cl)c2F)nn1-c1ccnc(C)c1 [Compound 59, (alphaR)-3-[(3-chloro-2-fluorophenyl)amino]-alpha-ethyl-1-(2-methyl-4-pyridinyl)-1H-pyrazole-5-ethanol]	692 nM	168.1 °C	
CC[C@@H](O)Cc1cc(Nc2cc(Cl)cc(OC)c2)nn1-c1ccnc(C)c1 [Compound 62, (alphaR)-3-[(3-chloro-5-methoxyphenyl)amino]-alpha-ethyl-1-(2-methyl-4-pyridinyl)-1H-pyrazole-5-ethanol]	427 nM	121.9 °C	
Cc1cc(-n2nc(Nc3cccc(Cl)c3F)cc2CC#N)ccn1 [Compound 63, 3-[(3-chloro-2-fluorophenyl)amino]-1-(2-methyl-4-pyridinyl)-1H-pyrazole-5-acetonitrile]	3890 nM		434%
CNC(=O)Cc1cc(Nc2ccc3c(c2)OC(F)(F)O3)nn1-c1ccnc(C)c1 [Compound 97, 3-[(2,2-difluoro-1,3-benzodioxol-5-yl)amino]-N-methyl-1-(2-methyl-4-pyridinyl)-1H-pyrazole-5-acetamide]	2510 nM	271.2 °C	
Cc1cc(-n2nc(Nc3ccc4c(c3)OC(F)(F)O4)cc2CCCOCc2ccccc2)ccn1 [Compound 104, N-(2,2-difluoro-1,3-benzodioxol-5-yl)-1-(2-methyl-4-pyridinyl)-5-[3-(phenylmethoxy)propyl]-1H-pyrazol-3-amine]	562 nM	124.4 °C	
Cc1cc(-n2nc(Nc3cccc(OC(F)(F)F)c3)cc2COCc2ccccc2)ccn1 [Compound 122, 1-(2-methyl-4-pyridinyl)-5-[(phenylmethoxy)methyl]-N-[3-(trifluoromethoxy)phenyl]-1H-pyrazol-3-amine]	372 nM	139.8 °C	
